From ChEMBL document CHEMBL1697781, “Assessment of the health effects of chemicals in humans: II. Construction of an adverse effects database for QSAR modeling” (Curr Drug Discov Technol, 2004)

Test system: Hepatotoxicity
Test: FDA HLAED, liver enzyme composite activity
Details: human
Throughout, for GGT Increase - Index Value: reference of the scale not given here.
Throughout, for LDH Increase - Index Value: reference of the scale not given here.

Row | SMILES | Composite Activity - Active | Composite Activity - Marginal | Composite Activity - Score
1 | N#Cc1cc(NC(=O)C(=O)O)c(Cl)c(NC(=O)C(=O)O)c1 [LODOXAMIDE] | 0 | 0 | Inactive
2 | N[C@@H](C(=O)N[C@@H]1C(=O)N2C(C(=O)O)=C(Cl)CC[C@H]12)c1ccccc1 [LORACARBEF ANHYDROUS] | 0 | 0 | Inactive
3 | CCCCc1nc(Cl)c(CO)n1Cc1ccc(-c2ccccc2-c2nn[nH]n2)cc1 [LOSARTAN] | 0 | 0 | Inactive
4 | C=C1c2c(Cl)ccc(O)c2C(=O)C2=C(O)[C@]3(O)C(=O)C(C(N)=O)=C(O)[C@@H](N(C)C)[C@@H]3[C@@H](O)[C@H]12 [MECLOCYCLINE] | 0 | 0 | Inactive
5 | Cc1ccc(Cl)c(Nc2ccccc2C(=O)O)c1Cl [MECLOFENAMIC ACID] | 0 | 0 | Inactive
6 | OC(c1cc(C(F)(F)F)nc2c(C(F)(F)F)cccc12)C1CCCCN1 (configuration not stated) [MEFLOQUINE] | 3 | 0 | Active
7 | C[C@@H](O)[C@H]1C(=O)N2C(C(=O)O)=C(S[C@@H]3CN[C@H](C(=O)N(C)C)C3)[C@H](C)[C@H]12 [MEROPENEM] | 2 | 1 | Active

Same assay, conditions: human, Liver

Row | SMILES | Composite Activity - Active | Composite Activity - Marginal | Composite Activity - Score
8 | CCOC(=O)N1CCC(=C2c3ccc(Cl)cc3CCc3cccnc32)CC1 [LORATADINE] | 0 | 0 | Inactive
9 | CNCCCC12CCC(c3ccccc31)c1ccccc12 [MAPROTILINE] | 0 | 0 | Inactive

Test system: Hepatotoxicity
Test: FDA HLAED, alkaline phosphatase increase
Details: human

Row | SMILES | Alkaline Phosphatase Increase - Activity Score | Alkaline Phosphatase Increase - Index Value | Alkaline Phosphatase Increase - Number of Reports
10 | N#Cc1cc(NC(=O)C(=O)O)c(Cl)c(NC(=O)C(=O)O)c1 [LODOXAMIDE] | Inactive | 0 | < 4
11 | N[C@@H](C(=O)N[C@@H]1C(=O)N2C(C(=O)O)=C(Cl)CC[C@H]12)c1ccccc1 [LORACARBEF ANHYDROUS] | Inactive | 0.2 | < 4
12 | CCOC(=O)N1CCC(=C2c3ccc(Cl)cc3CCc3cccnc32)CC1 [LORATADINE] | Inactive | 0.7 | >= 4
13 | CCCCc1nc(Cl)c(CO)n1Cc1ccc(-c2ccccc2-c2nn[nH]n2)cc1 [LOSARTAN] | Inactive | 0.4 | < 4
14 | CNCCCC12CCC(c3ccccc31)c1ccccc12 [MAPROTILINE] | Inactive | 0.5 | < 4
15 | C=C1c2c(Cl)ccc(O)c2C(=O)C2=C(O)[C@]3(O)C(=O)C(C(N)=O)=C(O)[C@@H](N(C)C)[C@@H]3[C@@H](O)[C@H]12 [MECLOCYCLINE] | Inactive | 0 | < 4
16 | Cc1ccc(Cl)c(Nc2ccccc2C(=O)O)c1Cl [MECLOFENAMIC ACID] | Inactive | 0 | < 4
17 | OC(c1cc(C(F)(F)F)nc2c(C(F)(F)F)cccc12)C1CCCCN1 (configuration not stated) [MEFLOQUINE] | Inactive | 7.2 | < 4
18 | C[C@@H](O)[C@H]1C(=O)N2C(C(=O)O)=C(S[C@@H]3CN[C@H](C(=O)N(C)C)C3)[C@H](C)[C@H]12 [MEROPENEM] | Inactive | 0 | < 4

Test system: Hepatotoxicity
Test: FDA HLAED, serum glutamic oxaloacetic transaminase (SGOT) increase
Details: human

Row | SMILES | SGOT Increase - Activity Score | SGOT Increase - Index Value | SGOT Increase - Number of Reports
19 | N#Cc1cc(NC(=O)C(=O)O)c(Cl)c(NC(=O)C(=O)O)c1 [LODOXAMIDE] | Inactive | 0 | < 4
20 | N[C@@H](C(=O)N[C@@H]1C(=O)N2C(C(=O)O)=C(Cl)CC[C@H]12)c1ccccc1 [LORACARBEF ANHYDROUS] | Inactive | 0.2 | < 4
21 | CCOC(=O)N1CCC(=C2c3ccc(Cl)cc3CCc3cccnc32)CC1 [LORATADINE] | Inactive | 0.9 | >= 4
22 | CCCCc1nc(Cl)c(CO)n1Cc1ccc(-c2ccccc2-c2nn[nH]n2)cc1 [LOSARTAN] | Inactive | 0.8 | >= 4
23 | CNCCCC12CCC(c3ccccc31)c1ccccc12 [MAPROTILINE] | Inactive | 0.3 | < 4
24 | C=C1c2c(Cl)ccc(O)c2C(=O)C2=C(O)[C@]3(O)C(=O)C(C(N)=O)=C(O)[C@@H](N(C)C)[C@@H]3[C@@H](O)[C@H]12 [MECLOCYCLINE] | Inactive | 0 | < 4
25 | Cc1ccc(Cl)c(Nc2ccccc2C(=O)O)c1Cl [MECLOFENAMIC ACID] | Inactive | 0 | < 4
26 | OC(c1cc(C(F)(F)F)nc2c(C(F)(F)F)cccc12)C1CCCCN1 (configuration not stated) [MEFLOQUINE] | Active | 25.3 | >= 4
27 | C[C@@H](O)[C@H]1C(=O)N2C(C(=O)O)=C(S[C@@H]3CN[C@H](C(=O)N(C)C)C3)[C@H](C)[C@H]12 [MEROPENEM] | Active | 50.8 | < 4

Test system: Hepatotoxicity
Test: FDA HLAED, serum glutamic pyruvic transaminase (SGPT) increase
Details: human

Row | SMILES | SGPT Increase - Activity Score | SGPT Increase - Index Value | SGPT Increase - Number of Reports
28 | N#Cc1cc(NC(=O)C(=O)O)c(Cl)c(NC(=O)C(=O)O)c1 [LODOXAMIDE] | Inactive | 0 | < 4
29 | N[C@@H](C(=O)N[C@@H]1C(=O)N2C(C(=O)O)=C(Cl)CC[C@H]12)c1ccccc1 [LORACARBEF ANHYDROUS] | Inactive | 0.2 | < 4
30 | CCOC(=O)N1CCC(=C2c3ccc(Cl)cc3CCc3cccnc32)CC1 [LORATADINE] | Inactive | 0.6 | >= 4
31 | CCCCc1nc(Cl)c(CO)n1Cc1ccc(-c2ccccc2-c2nn[nH]n2)cc1 [LOSARTAN] | Inactive | 1 | >= 4
32 | CNCCCC12CCC(c3ccccc31)c1ccccc12 [MAPROTILINE] | Inactive | 0.3 | < 4
33 | C=C1c2c(Cl)ccc(O)c2C(=O)C2=C(O)[C@]3(O)C(=O)C(C(N)=O)=C(O)[C@@H](N(C)C)[C@@H]3[C@@H](O)[C@H]12 [MECLOCYCLINE] | Inactive | 0 | < 4
34 | Cc1ccc(Cl)c(Nc2ccccc2C(=O)O)c1Cl [MECLOFENAMIC ACID] | Inactive | 0 | < 4
35 | OC(c1cc(C(F)(F)F)nc2c(C(F)(F)F)cccc12)C1CCCCN1 (configuration not stated) [MEFLOQUINE] | Active | 32.5 | >= 4
36 | C[C@@H](O)[C@H]1C(=O)N2C(C(=O)O)=C(S[C@@H]3CN[C@H](C(=O)N(C)C)C3)[C@H](C)[C@H]12 [MEROPENEM] | Active | 50.8 | < 4

Test system: Hepatotoxicity
Test: FDA HLAED, lactate dehydrogenase (LDH) increase
Details: human

Row | SMILES | LDH Increase - Activity Score | LDH Increase - Index Value | LDH Increase - Number of Reports
37 | N#Cc1cc(NC(=O)C(=O)O)c(Cl)c(NC(=O)C(=O)O)c1 [LODOXAMIDE] | Inactive | 0 | < 4
38 | N[C@@H](C(=O)N[C@@H]1C(=O)N2C(C(=O)O)=C(Cl)CC[C@H]12)c1ccccc1 [LORACARBEF ANHYDROUS] | Inactive | 0 | < 4
39 | CCOC(=O)N1CCC(=C2c3ccc(Cl)cc3CCc3cccnc32)CC1 [LORATADINE] | Inactive | 0.2 | < 4
40 | CCCCc1nc(Cl)c(CO)n1Cc1ccc(-c2ccccc2-c2nn[nH]n2)cc1 [LOSARTAN] | Inactive | 0.4 | < 4
41 | CNCCCC12CCC(c3ccccc31)c1ccccc12 [MAPROTILINE] | Inactive | 0 | < 4
42 | C=C1c2c(Cl)ccc(O)c2C(=O)C2=C(O)[C@]3(O)C(=O)C(C(N)=O)=C(O)[C@@H](N(C)C)[C@@H]3[C@@H](O)[C@H]12 [MECLOCYCLINE] | Inactive | 0 | < 4
43 | Cc1ccc(Cl)c(Nc2ccccc2C(=O)O)c1Cl [MECLOFENAMIC ACID] | Inactive | 0 | < 4
44 | OC(c1cc(C(F)(F)F)nc2c(C(F)(F)F)cccc12)C1CCCCN1 (configuration not stated) [MEFLOQUINE] | Inactive | 0 | < 4
45 | C[C@@H](O)[C@H]1C(=O)N2C(C(=O)O)=C(S[C@@H]3CN[C@H](C(=O)N(C)C)C3)[C@H](C)[C@H]12 [MEROPENEM] | Marginally Active | 33.8 | < 4

Test system: Hepatotoxicity
Test: FDA HLAED, gamma-glutamyl transferase (GGT) increase
Details: human

Row | SMILES | GGT Increase - Activity Score | GGT Increase - Index Value | GGT Increase - Number of Reports
46 | N#Cc1cc(NC(=O)C(=O)O)c(Cl)c(NC(=O)C(=O)O)c1 [LODOXAMIDE] | Inactive | 0 | < 4
47 | N[C@@H](C(=O)N[C@@H]1C(=O)N2C(C(=O)O)=C(Cl)CC[C@H]12)c1ccccc1 [LORACARBEF ANHYDROUS] | Inactive | 0.1 | < 4
48 | CCOC(=O)N1CCC(=C2c3ccc(Cl)cc3CCc3cccnc32)CC1 [LORATADINE] | Inactive | 0.5 | >= 4
49 | CCCCc1nc(Cl)c(CO)n1Cc1ccc(-c2ccccc2-c2nn[nH]n2)cc1 [LOSARTAN] | Inactive | 0.6 | < 4
50 | CNCCCC12CCC(c3ccccc31)c1ccccc12 [MAPROTILINE] | Inactive | 0 | < 4
51 | C=C1c2c(Cl)ccc(O)c2C(=O)C2=C(O)[C@]3(O)C(=O)C(C(N)=O)=C(O)[C@@H](N(C)C)[C@@H]3[C@@H](O)[C@H]12 [MECLOCYCLINE] | Inactive | 0 | < 4
52 | Cc1ccc(Cl)c(Nc2ccccc2C(=O)O)c1Cl [MECLOFENAMIC ACID] | Inactive | 0 | < 4
53 | OC(c1cc(C(F)(F)F)nc2c(C(F)(F)F)cccc12)C1CCCCN1 (configuration not stated) [MEFLOQUINE] | Active | 18 | >= 4
54 | C[C@@H](O)[C@H]1C(=O)N2C(C(=O)O)=C(S[C@@H]3CN[C@H](C(=O)N(C)C)C3)[C@H](C)[C@H]12 [MEROPENEM] | Inactive | 0 | < 4
